Patent publication US20200113816A1, “REACTIONS TRIGGERED BY COOLING-INDUCED GEL-TO-SOL TRANSITION OF THERMORESPONSIVE POLYMERS” (Vanderbilt University, priority 2018, published 2020)

Test system: Sprague-Dawley rats
Experiment: Neurobehavioral testing of nerve block, cooling-triggered local anesthesia
Type: in vivo
Conditions: injected, 15 mg/mL in sterile saline
Text: Nile Red- or bupivacaine-loaded gels are implanted in adult Sprague-Dawley rats alongside a wireless temperature probe. Stability are characterized using dye-loaded formulations, with animals imaged daily to determine the extent to which the dye leaks from the gelled implant; quantitative data are derived from depletion of the Nile Red fluorescence signal. To characterize release, rats implanted with dye-loaded formulations are subjected to a cooling stimulus (ice applied to the skin while tissue temperature is remotely monitored), and subsequently imaged to determine the extent to which cooling triggers release of the sequestered compound in vivo as observed by decrease in the depot fluorescence intensity. Multiple cycles of cooling are performed (with a 24-hour recovery period between cycles) until no significant change in the fluorescence signal from the depot is observed. […] The difference between the duration of nerve blocks due to injection of bupivacaine solution and the duration of blocks caused by cooling-triggered release from an implanted device is determined. To investigate tissue response to the implanted devices, after the animals are sacrificed the tissue surrounding the sciatic nerve is removed, processed for histology (H&E staining), and analyzed via optical microscopy.

SMILES: CCCCN1CCCCC1C(=O)Nc1c(C)cccc1C (stereo not shown) [bupivacaine]
- baseline nerve block duration: ~200 min
